Data reported in patent US11850266B2, “Cardiomyocytes and compositions and methods for producing the same” (President and Fellows of Harvard College, priority 2019, dated 2023).
Entries after “also recorded” stand apart in the source; their conditions may differ.

Test system: GCaMP-derived cardiomyocytes
Assay: Cardiomyocyte purity (% TNNT2+) in 3D suspension culture
Type: cell-based, human
Conditions: Torin1 24 hours from day 9, assay day 10; ~70% TNNT2+ with the protocol
Method: Cardiomyocyte differentiation of iPSCs in suspension culture. The suspension differentiation protocol outlined by Kempf et al (79) will be used with some modifications. 30 ml and 125 ml disposable spinner flasks are set on a spinner plate capable of rotation speeds between 40-70 rpm placed in a 37° C., 5% CO2 incubator. Cells are seeded at 750,000 cells/ml and allowed to grow for 4 days in maintenance media until spheroids are approximately 300 μm in diameter, then differentiation is initiated with 7.5 μM CHIR99021. On day 2 of differentiation, CHIR is removed from the media and the Wnt pathway inhibitor IWP4 (5 μM) is added to the media, on day 4 of differentiation, IWP4 is removed from the media, and from day 7 onward, insulin is included in the media. […] Differentiation conditions will be optimized with all five cell lines (BJRiPS-A, DiPS 1016 SevA, GCaMP, Gibco, UCSD142i-86-1). Cardiomyocyte purity will be quantified with flow cytometry detecting TNNT2+ cells.
An example of a differentiation protocol for generating cardiomyocytes from iPSCs in suspension culture is detailed as follows. 30 ml and 125 ml disposable spinner flasks were used and were set on a spinner plate capable of rotation speeds between 40-70 rpm, where the spinner plate is placed in a 37° C., 5% CO2 incubator. […] Cardiomyocyte purity will be quantified with flow cytometry detecting TNNT2+ cells.

CCC(=O)N1CCN(c2ccc(-n3c(=O)ccc4cnc5ccc(-c6cnc7ccccc7c6)cc5c43)cc2C(F)(F)F)CC1 [Torin1]
% TNNT2+ cardiomyocyte purity in 3D suspension culture: trend toward higher purity; also recorded: trend toward higher % TNNT2+ cells
